Laboratory results from ChEMBL document CHEMBL4680265, “Anti-tubulin agent vinorelbine inhibits metastasis of cancer cells by regulating epithelial-mesenchymal transition” (Eur J Med Chem, 2020).
Calls of active or inactive are those of the source. No cut-off for these calls is given here.

Key:
[1] = system: NCI-H1975; assay: Antimigratory activity against human NCI-H1975 cells assessed as reduction in migration at 5 nM measured after 96 hrs by scratch wound healing based inverted microscopic analysis relative to control; assay type: functional
[2] = system: HepG2; assay: Inhibition of epithelial-mesenchymal transition in human HepG2 cells assessed as downregulation of MMP-9 by Western blot analysis; assay type: functional, cell-based; conditions: dose 0.1-10 µM
[3] = system: HepG2; assay: Antiinvasive activity against human HepG2 cells assessed as reduction in invasion at 0.1 to 10 nM measured after 48 hrs by DAPI staining based transwell assay; assay type: functional, cell-based; conditions: dose 0.1-10 nM
[4] = system: HCT-116; assay: Induction of apoptosis in human HCT-116 cells assessed as decrease in Bcl-xl expression at 0.01 to 1 uM incubated for 48 hrs by Western blot analysis; assay type: functional, cell-based; conditions: dose 0.01-1 µM
[5] = system: HCT-116; assay: Cytotoxicity against human HCT-116 cells assessed as reduction in cell viability incubated for 48 hrs by MTT assay; assay type: functional, cell-based; conditions: HCT-116, 48 h
[6] = system: NCI-H1975; assay: Induction of apoptosis in human NCI-H1975 cells assessed as decrease in Bcl-xl expression at 1 to 100 nM incubated for 48 hrs by Western blot analysis; assay type: functional, cell-based; conditions: dose 1-100 nM
[7] = system: HepG2; assay: Cytotoxicity against human HepG2 cells assessed as reduction in cell viability incubated for 48 hrs by MTT assay; assay type: functional, cell-based; conditions: HepG2, 48 h
[8] = system: HepG2; assay: Inhibition of epithelial-mesenchymal transition in human HepG2 cells assessed as decrease in Vimentin expression at 0.1 to 10 uM by Western blot analysis; assay type: functional, cell-based; conditions: dose 0.1-10 µM
[9] = system: HCT-116; assay: Inhibition of epithelial-mesenchymal transition in human HCT-116 cells assessed as downregulation of MMP-2 by Western blot analysis; assay type: functional, cell-based; conditions: dose 0.01-1 µM
[10] = system: HCT-116; assay: Antimigratory activity against human HCT-116 cells assessed as reduction in migration at 10 nM measured after 96 hrs by scratch wound healing based inverted microscopic analysis relative to control; assay type: functional
[11] = system: HepG2; assay: Induction of cell cycle arrest in human HepG2 cells assessed as decrease in cyclin B1 level at 0.1 to 10 uM incubated for 24 hrs by Western blot analysis; assay type: functional, cell-based; conditions: dose 0.1-10 µM
[12] = system: NCI-H1975; assay: Inhibition of epithelial-mesenchymal transition in human NCI-H1975 cells assessed as downregulation of MMP-9 by Western blot analysis; assay type: functional, cell-based; conditions: dose 1-100 nM
[13] = system: NCI-H1975; assay: Induction of cell cycle arrest in human NCI-H1975 cells assessed as increase in G2/M phase accumulation at 10 nM incubated for 24 hrs by propidium iodide staining based flow cytometry analysis relative to control; assay type: functional
[14] = system: HCT-116; assay: Antiinvasive activity against human HCT-116 cells assessed as reduction in invasion at 1 to 10 nM measured after 48 hrs by DAPI staining based transwell assay; assay type: functional, cell-based; conditions: dose 1-10 nM
[15] = system: HepG2; assay: Inhibition of epithelial-mesenchymal transition in human HepG2 cells assessed as […] in E-cadherin expression at 0.1 to 10 uM by Western blot analysis; assay type: functional, cell-based; conditions: dose 0.1-10 µM
[16] = system: HCT-116; assay: Induction of cell cycle arrest in human HCT-116 cells assessed as decrease in cyclin B1 level at 0.01 to 1 uM incubated for 24 hrs by Western blot analysis; assay type: functional, cell-based; conditions: dose 0.01-1 µM
[17] = system: HepG2; assay: Antimigratory activity against human HepG2 cells assessed as reduction in migration at 1 nM measured after 96 hrs by scratch wound healing based inverted microscopic analysis relative to control; assay type: functional
[18] = system: HepG2; assay: Induction of cell cycle arrest in human HepG2 cells assessed as increase in G2/M phase accumulation at 0.1 to 10 uM incubated for 24 hrs by propidium iodide staining based flow cytometry analysis; assay type: functional; conditions: dose 0.1-10 µM
[19] = system: HCT-116; assay: Inhibition of epithelial-mesenchymal transition in human HCT-116 cells assessed as decrease in N-cadherin expression at 0.01 to 1 uM by Western blot analysis; assay type: functional, cell-based; conditions: dose 0.01-1 µM
[20] = system: HepG2; assay: Inhibition of colony formation in human HepG2 cells at 0.1 to 10 uM incubated for 3 to 4 days by crystal violet staining based assay; assay type: functional, cell-based; conditions: dose 0.1-10 µM, time 3-4 day
[21] = system: HCT-116; assay: Antimigratory activity against human HCT-116 cells assessed as reduction in migration at 5 nM measured after 96 hrs by scratch wound healing based inverted microscopic analysis relative to control; assay type: functional
[22] = system: HCT-116; assay: Induction of cell cycle arrest in human HCT-116 cells assessed as increase in G2/M phase accumulation at 0.01 to 1 uM incubated for 24 hrs by propidium iodide staining based flow cytometry analysis; assay type: functional; conditions: dose 0.01-1 µM
[23] = system: HCT-116; assay: Inhibition of epithelial-mesenchymal transition in human HCT-116 cells assessed as increase in E-cadherin expression at 0.01 to 1 uM by Western blot analysis; assay type: functional, cell-based; conditions: dose 0.01-1 µM
[24] = system: HepG2; assay: Inhibition of epithelial-mesenchymal transition in human HepG2 cells assessed as downregulation of MMP-2 by Western blot analysis; assay type: functional, cell-based; conditions: dose 0.1-10 µM
[25] = system: HepG2; assay: Inhibition of epithelial-mesenchymal transition in human HepG2 cells assessed as decrease in N-cadherin expression at 0.1 to 10 uM by Western blot analysis; assay type: functional, cell-based; conditions: dose 0.1-10 µM
[26] = system: NCI-H1975; assay: Induction of apoptosis in human NCI-H1975 cells assessed as increase in late apoptotic cells at 1 to 100 nM incubated for 48 hrs by annexin V-FITC and PI staining based flow cytometry analysis; assay type: functional, cell-based; conditions: dose 1-100 nM
[27] = system: HepG2; assay: Antimigratory activity against human HepG2 cells assessed as reduction in migration at 10 nM measured after 96 hrs by scratch wound healing based inverted microscopic analysis relative to control; assay type: functional
[28] = system: NCI-H1975; assay: Induction of cell cycle arrest in human NCI-H1975 cells assessed as decrease in cyclin B1 level at 1 to 100 nM incubated for 24 hrs by Western blot analysis; assay type: functional, cell-based; conditions: dose 1-100 nM
[29] = system: NCI-H1975; assay: Inhibition of epithelial-mesenchymal transition in human NCI-H1975 cells assessed as increase in Vimentin expression at 1 to 100 nM by Western blot analysis; assay type: functional, cell-based; conditions: dose 1-100 nM
[30] = system: NCI-H1975; assay: Inhibition of epithelial-mesenchymal transition in human NCI-H1975 cells assessed as downregulation of MMP-2 by Western blot analysis; assay type: functional, cell-based; conditions: dose 1-100 nM

CCC1=C[C@@H]2CN(C1)Cc1c([nH]c3ccccc13)[C@@](C(=O)OC)(c1cc3c(cc1OC)N(C)[C@H]1[C@@](O)(C(=O)OC)[C@H](OC(C)=O)[C@]4(CC)C=CCN5CC[C@]31[C@@H]54)C2 [VINORELBINE]
inhibition at 0.005 µM [1]: 52.6% | inhibition [2]: Dose-dependent effect | inhibition [3]: Active | Activity [4]: Active | IC50 [5]: 14.9 nM | Activity [6]: Active | IC50 [7]: 110 nM | inhibition [8]: inactive | inhibition [9]: Dose-dependent effect | inhibition at 0.01 µM [10]: 50.9% | Activity [11]: Active | inhibition [12]: Dose-dependent effect | Activity [13]: 34.31% | inhibition [14]: Active | inhibition [15]: inactive | Activity [16]: inactive | inhibition at 0.001 µM [17]: 33.1% | Activity [18]: Active | inhibition [19]: Active | inhibition [20]: Active | inhibition at 0.005 µM [21]: 28.5% | Activity [22]: Active | inhibition [23]: Active | inhibition [24]: Dose-dependent effect | inhibition [25]: Active | Activity [26]: Active | inhibition at 0.01 µM [27]: 47.4% | Activity [28]: Active | inhibition [29]: Active | inhibition [30]: Dose-dependent effect
